The record followed here is PubChem BioAssay AID296 (DTP/NCI, 2004).

“And” between values parts separate entries of the source, which are not always exact repeats. Identical values can stand only once. Results filed as inconclusive are left out.

This test has as its system MX-1 breast xenograft, nude mice, tumor weight T/C. The experiment in a line: NCI In Vivo Anticancer Drug Screen. Data for tumor model Human Mammary Carcinoma MX-1 Xenograft (intrarenal inoculation) in NU/NU Swiss (nude) mice. The settings on record: endpoint: mean tumor weight change, higher = larger tumour. The essentials:
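Read-out: treated (T) over vehicle control (C) ratio of survival or tumor size. Dosing in animals carrying the transplanted tumor.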
On the technique in general: In xenograft studies the graft and the host belong to different species.

[1] abbreviates: dose: 6.25 mg/kg/injection, schedule: Q04DX003 (sc), vehicle: suspension in saline.
The mark [2] stands for this setting: dose: 12.5 mg/kg/injection, schedule: Q04DX003 (sc), vehicle: suspension in saline.
Where [3] appears, read: dose: 300.0 mg/kg/injection, schedule: Q04DX003 (sc), vehicle: Klucel (hydroxypropylcellulose) (HPC).
The mark [4] stands for this setting: dose: 600.0 mg/kg/injection, schedule: Q04DX003 (sc), vehicle: Klucel (hydroxypropylcellulose) (HPC).
Where [5] appears, read: dose: 1200.0 mg/kg/injection, schedule: Q04DX003 (sc), vehicle: Klucel (hydroxypropylcellulose) (HPC).
[6] abbreviates: dose: 2400.0 mg/kg/injection, schedule: Q04DX003 (sc), vehicle: Klucel (hydroxypropylcellulose) (HPC).
The mark [7] stands for this setting: dose: 150.0 mg/kg/injection, schedule: Q04DX003 (sc), vehicle: saline with Tween-80.
[8] abbreviates: dose: 300.0 mg/kg/injection, schedule: Q04DX003 (sc), vehicle: saline with Tween-80.
Where [9] appears, read: dose: 20.0 mg/kg/injection, schedule: Q04DX003 (sc), vehicle: Klucel (hydroxypropylcellulose) (HPC).
Where [10] appears, read: dose: 25.0 mg/kg/injection, schedule: Q04DX003 (sc), vehicle: suspension in saline.
[11] abbreviates: dose: 75.0 mg/kg/injection, schedule: Q04DX003 (sc), vehicle: Klucel (hydroxypropylcellulose) (HPC).
[12] abbreviates: dose: 100.0 mg/kg/injection, schedule: Q01DX010 (sc), vehicle: saline.
Where [13] appears, read: dose: 200.0 mg/kg/injection, schedule: Q01DX010 (sc), vehicle: saline.
Setting [14] is: dose: 400.0 mg/kg/injection, schedule: Q01DX010 (sc), vehicle: saline.
The mark [15] stands for this setting: dose: 12.5 mg/kg/injection, schedule: Q04DX003 (sc), vehicle: saline.
Where [16] appears, read: dose: 25.0 mg/kg/injection, schedule: Q04DX003 (sc), vehicle: saline.
[17] abbreviates: dose: 50.0 mg/kg/injection, schedule: Q04DX003 (sc), vehicle: saline.

`NC(=S)c1cn(C2OC(CO)C(O)C2O)c2ncnc(N)c12` (stereo unspecified): the T/C reads like this: under setting [1], 50 % of control; under setting [2], 9 % of control.
`COc1ccc2c(ccc3oc([N+](=O)[O-])cc32)c1`: the T/C under setting [3] is 99 % of control, the T/C under setting [4] was 72 % of control, the T/C under setting [5] is 71 % of control and the T/C under setting [6] is 36 % of control.
For the molecule `CS(=O)(=O)Nc1ccc(C(=O)CCN2CCCCCC2)cc1`, the T/C was 101 % of control under setting [7] and 70 % of control under setting [8].
Take `N=c1c(C(=O)OCc2ccccc2)ncc(CCl)n1O`: the T/C was 89 % of control (dose: 600.0 mg/kg/injection, schedule: Q04DX003 (sc), vehicle: saline with Tween-80) and 72 % of control (dose: 2400.0 mg/kg/injection, schedule: Q04DX003 (sc), vehicle: saline with Tween-80).
Take `O=C1C(=O)c2cccnc2-c2ncccc21`: the T/C under setting [9] is 60 % of control.
Take `c1ccc2c(NCCCCCCNc3c4ccccc4nc4ccccc34)c3ccccc3nc2c1`: the T/C is, setting by setting: (dose: 10.0 mg/kg/injection, schedule: Q01DX010 (sc), vehicle: Klucel (hydroxypropylcellulose) (HPC)) 87 % of control; (dose: 10.0 mg/kg/injection, schedule: Q04DX003 (sc), vehicle: Klucel (hydroxypropylcellulose) (HPC)) 297 % of control; (dose: 20.0 mg/kg/injection, schedule: Q01DX010 (sc), vehicle: Klucel (hydroxypropylcellulose) (HPC)) 58 % of control; under setting [9], 241 % of control; (dose: 40.0 mg/kg/injection, schedule: Q04DX003 (sc), vehicle: Klucel (hydroxypropylcellulose) (HPC)) 322 % of control; (dose: 80.0 mg/kg/injection, schedule: Q04DX003 (sc), vehicle: Klucel (hydroxypropylcellulose) (HPC)) 199 % of control.
On to `COc1cc(Cc2nccc3cc(OC)c(OC)cc23)c(C(C)=O)c(OC)c1`, for which the T/C (dose: 40.0 mg/kg/injection, schedule: Q01DX010 (sc), vehicle: saline) is 103 % of control; the T/C (dose: 80.0 mg/kg/injection, schedule: Q01DX010 (sc), vehicle: saline) is 103 % of control; the T/C (dose: 160.0 mg/kg/injection, schedule: Q01DX010 (sc), vehicle: saline) was 93 % of control.
For the molecule `NC(C(=O)O)c1ccc(CBr)cc1` (stereo unspecified), the T/C is, setting by setting: (dose: 200.0 mg/kg/injection, schedule: Q04DX003 (sc), vehicle: acid diluted with saline) 61 % of control; (dose: 400.0 mg/kg/injection, schedule: Q04DX003 (sc), vehicle: acid diluted with saline) 92 % of control; (dose: 800.0 mg/kg/injection, schedule: Q04DX003 (sc), vehicle: acid diluted with saline) 73 % of control; (dose: 1600.0 mg/kg/injection, schedule: Q04DX003 (sc), vehicle: acid diluted with saline) 106 % of control.
Turning to `[Cl][Pt+2][Cl].[NH-]CC1(C[NH-])CCC1`, the T/C (dose: 3.12 mg/kg/injection, schedule: Q04DX003 (sc), vehicle: suspension in saline) is 48 % of control; the T/C (dose: 6.25 mg/kg/injection, schedule: Q04DX003 (sc), vehicle: saline) was 6 % of control; the T/C under setting [1] is 19 % of control and 29 % of control; the T/C under setting [2] is 6 % of control and 16 % of control; the T/C under setting [10] was -74 % of control and -54 % of control.
As to `C=C1N(C)c2ccccc2C1(C)C`, the T/C is 100 % of control (dose: 25.0 mg/kg/injection, schedule: Q04DX003 (sc), vehicle: saline with Tween-80) and 75 % of control (dose: 50.0 mg/kg/injection, schedule: Q04DX003 (sc), vehicle: saline with Tween-80).
Turning to `Clc1cc(Cl)c(C[N+]23CN4CN(CN(C4)C2)C3)cc1Cl`, the T/C is 106 % of control (dose: 37.5 mg/kg/injection, schedule: Q04DX003 (sc), vehicle: saline with Tween-80); 120 % of control (dose: 75.0 mg/kg/injection, schedule: Q04DX003 (sc), vehicle: saline with Tween-80); 110 % of control under setting [7]; 169 % of control under setting [8].
With `CC1=CC(=NN=c2cc(C)n([O-])c(C)c2)C=C(C)[N+]1=O`, the T/C is, setting by setting: (dose: 300.0 mg/kg/injection, schedule: Q04DX003 (sc), vehicle: suspension in saline) 90 % of control; (dose: 600.0 mg/kg/injection, schedule: Q04DX003 (sc), vehicle: suspension in saline) 36 % of control; (dose: 1200.0 mg/kg/injection, schedule: Q04DX003 (sc), vehicle: suspension in saline) 112 % of control; (dose: 2400.0 mg/kg/injection, schedule: Q04DX003 (sc), vehicle: suspension in saline) 32 % of control.
As for `O=C(CC(=O)C(F)(F)F)c1csc2ccccc12`, the T/C under setting [3] was 87 % of control, the T/C under setting [4] is 91 % of control, the T/C under setting [5] was 111 % of control and the T/C under setting [6] was 99 % of control.
In the case of `COc1ccc2[nH]c3c(c2c1)CCNC3CC(C)CCC=C(C)C` (stereo unspecified), the T/C is, setting by setting: under setting [11], 114 % of control; (dose: 150.0 mg/kg/injection, schedule: Q04DX003 (sc), vehicle: Klucel (hydroxypropylcellulose) (HPC)) 119 % of control.
With `CC(C)=CC(=O)OC1C2C(C)=CC(=O)C(O)C2(C)C2C3(O)OCC24C(CC(=O)OC14)C(C)C3O` (stereo unspecified), the T/C is, setting by setting: (dose: 1.25 mg/kg/injection, schedule: Q04DX003 (sc), vehicle: distilled water + Tween-80) 41 % of control; (dose: 2.5 mg/kg/injection, schedule: Q04DX003 (sc), vehicle: distilled water + Tween-80) 82 % of control; (dose: 5.0 mg/kg/injection, schedule: Q04DX003 (sc), vehicle: distilled water + Tween-80) 71 % of control; (dose: 10.0 mg/kg/injection, schedule: Q04DX003 (sc), vehicle: distilled water + Tween-80) 88 % of control.
`Oc1cc2ccccc2c(-c2c(O)c(O)cc3ccccc23)c1O`: the T/C by setting is: under setting [7], 162 % of control; under setting [8], 151 % of control; (dose: 1200.0 mg/kg/injection, schedule: Q04DX003 (sc), vehicle: saline with Tween-80) 96 % of control.
For the molecule `CCN(CC)CC[n+]1ccc2c(C)c3[nH]c4ccc(O)cc4c3c(C)c2c1`, the T/C reads like this: under setting [2], 82 % of control; under setting [10], 77 % of control.
In the case of `N/C=N/O`, the T/C is, setting by setting: under setting [12], 107 % of control; under setting [13], 53 % of control; under setting [14], 81 % of control.
On to `OCCN1CCN(CCCN2c3ccccc3Sc3ccc(C(F)(F)F)cc32)CC1`, for which the T/C (dose: 30.0 mg/kg/injection, schedule: Q04DX003 (sc), vehicle: saline) is 87 % of control; the T/C (dose: 60.0 mg/kg/injection, schedule: Q04DX003 (sc), vehicle: saline) was 50 % of control and 71 % of control; the T/C (dose: 480.0 mg/kg/injection, schedule: Q04DX003 (sc), vehicle: saline) was 36 % of control.
Consider `OCC1OC(n2cnc3cncnc32)C(O)C1O` (stereo unspecified), for which the T/C was 90 % of control under setting [15], 106 % of control under setting [16] and 78 % of control under setting [17].
For the molecule `[CH3][Sn]([CH3])([Cl])[S]CCN`, the T/C was 77 % of control (dose: 18.75 mg/kg/injection, schedule: Q04DX003 (sc), vehicle: suspension in saline) and 157 % of control (dose: 75.0 mg/kg/injection, schedule: Q04DX003 (sc), vehicle: suspension in saline).
For `Nc1ncc(C2OC(CO)C(O)C2O)c(=O)[nH]1` (stereo unspecified), the T/C is 53 % of control (dose: 150.0 mg/kg/injection, schedule: Q04DX003 (ip), vehicle: saline); 35 % of control (dose: 300.0 mg/kg/injection, schedule: Q04DX003 (ip), vehicle: saline); 25 % of control (dose: 600.0 mg/kg/injection, schedule: Q04DX003 (ip), vehicle: saline).
Take `COc1ccc(C(=O)C(CN(C)C)CN(C)C)cc1`: the T/C runs as follows: under setting [15], 101 % of control; under setting [16], 123 % of control; under setting [17], 85 % of control.
On to `Cc1cc2nc3[nH]c4ccccc4c3nc2cc1C`, for which the T/C was 92 % of control under setting [12]; 103 % of control under setting [13]; 63 % of control under setting [14]; 69 % of control (dose: 800.0 mg/kg/injection, schedule: Q01DX010 (sc), vehicle: saline).
For `O=C1C=CC(n2cc(F)c(=O)[nH]c2=O)O1` (stereo unspecified), the T/C under setting [11] was 104 % of control.
